Laboratory results from patent US11504349B2, “Composition for preventing or treating TNF-related diseases, containing novel derivative as active ingredient, and method for inhibiting TNF activity by using same” (ILAB, priority 2017, dated 2022).

Target: T1, TNF (Homo sapiens, UniProt P01375)
Test: TNF-neutralization bioassay: TNF-induced cell death of LM cells (MTT)
Type: cell-based
Details: compound 50 μM, TNF 20 ng/ml, actinomycin D, LM cells, 24 hours
Method: (§1) First, the addition of recombinant TNF to mouse fibroblast LM cells induces cell death, and thus, by using the same, the TNF-neutralization bioassay was constructed. In other words, LM cells were pretreated with TNF (20 ng/ml) and the compounds synthesized in the above examples at various concentrations (5×10^4 cells/well), and a sensitizer actinomycin D ([…]) was added, and cultured in a CO2 incubator for 24 hours, and then the MTT assay was carried out. At this time, 10 μl of MTT (5 mg/ml stock) was added, reacted for 4 hours, and then dissolved in DMSO to measure the absorbance at 570 nm. First, the TNF cell death inhibition/neutralization action of TNF-target expected compounds at single concentration (50 or 10 μM) was measured. Second, IC50 values were determined by treating with the compounds having an excellent effect at different concentrations. The % inhibition of TNF was calculated using the following formula: % inhibition of TNF=(OD value of a group treated with TNF and compound−OD value of TNF treated group/(OD value of TNF untreated group−OD value of TNF treated group)×100.
(§2) IC50 values were statistically analyzed using Prism 6 (GraphPad) (IC50: 50% inhibitory concentration, CC50: 50% cytotoxic concentration).

T1 sequence (P01375 77-233 limits assumed): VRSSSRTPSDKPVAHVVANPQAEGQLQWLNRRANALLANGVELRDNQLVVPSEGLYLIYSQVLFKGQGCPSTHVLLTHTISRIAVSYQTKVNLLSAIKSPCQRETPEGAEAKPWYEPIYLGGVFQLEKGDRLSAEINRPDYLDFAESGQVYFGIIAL

Structure (SMILES)	inhibition at 50 µM [%]
COc1ccc(-c2oc3ccc(Br)cc3c(=O)c2C(=O)O)cc1OC [Example 40, 2-(3,4-dimethoxyphenyl)-3-carboxy-6-bromo-(4H)-4-benzopyranone]	100
O=C(O)c1c(-c2cccc(F)c2)oc2ccc(Cl)cc2c1=O [Example 45, 2-(3-fluorophenyl)-3-carboxy-6-chloro-(4H)-4-benzopyranone]	88.4
O=C(O)c1c(-c2cc(F)cc(F)c2)oc2ccccc2c1=O [Example 17, 2-(3,5-difluorophenyl)-3-carboxy-(4H)-4-benzopyranone]	71
O=C(O)c1c(-c2ccc(Cl)cc2)oc2ccc(Br)cc2c1=O [Example 72, 2-(4-chlorophenyl)-3-carboxy-6-bromo-(4H)-4-benzopyranone]	100
O=C(O)c1c(-c2cc(F)cc(F)c2)oc2ccc(Cl)cc2c1=O [Example 50, 2-(3,5-difluorophenyl)-3-carboxy-6-chloro-(4H)-4-benzopyranone]	100
O=C(O)c1c(-c2cccc(F)c2)oc2ccccc2c1=O [Example 16, 2-(3-fluorophenyl)-3-carboxy-(4H)-4-benzopyranone]	70.2
O=C(O)c1c(-c2ccc(Cl)cc2)oc2ccc(Cl)cc2c1=O [Example 71, 2-(4-chlorophenyl)-3-carboxy-6-chloro-(4H)-4-benzopyranone]	97.9
O=C(O)c1c(-c2cccc(F)c2F)oc2ccc(Br)cc2c1=O [Example 57, 2-(2,3-difluorophenyl)-3-carboxy-6-bromo-(4H)-4-benzopyranone]	100
Cc1cccc(-c2oc3ccc(Br)cc3c(=O)c2C(=O)O)c1 [Example 30, 2-(3-methylphenyl)-3-carboxy-6-bromo-(4H)-4-benzopyranone]	7.4

Same assay, conditions: inhibition of TNF-induced LM cell death

Structure (SMILES)	IC50 [µM]
COc1ccc(-c2oc3ccc(Br)cc3c(=O)c2C(=O)O)cc1OC [Example 40, 2-(3,4-dimethoxyphenyl)-3-carboxy-6-bromo-(4H)-4-benzopyranone]	122
O=C(O)c1c(-c2cccc(F)c2)oc2ccc(Cl)cc2c1=O [Example 45, 2-(3-fluorophenyl)-3-carboxy-6-chloro-(4H)-4-benzopyranone]	18.5
O=C(O)c1c(-c2cc(F)cc(F)c2)oc2ccccc2c1=O [Example 17, 2-(3,5-difluorophenyl)-3-carboxy-(4H)-4-benzopyranone]	2.5
O=C(O)c1c(-c2ccc(Cl)cc2)oc2ccc(Br)cc2c1=O [Example 72, 2-(4-chlorophenyl)-3-carboxy-6-bromo-(4H)-4-benzopyranone]	20.8
O=C(O)c1c(-c2cc(F)cc(F)c2)oc2ccc(Cl)cc2c1=O [Example 50, 2-(3,5-difluorophenyl)-3-carboxy-6-chloro-(4H)-4-benzopyranone]	5.1
O=C(O)c1c(-c2cccc(F)c2)oc2ccccc2c1=O [Example 16, 2-(3-fluorophenyl)-3-carboxy-(4H)-4-benzopyranone]	16.8
O=C(O)c1c(-c2ccc(Cl)cc2)oc2ccc(Cl)cc2c1=O [Example 71, 2-(4-chlorophenyl)-3-carboxy-6-chloro-(4H)-4-benzopyranone]	3.3
O=C(O)c1c(-c2cccc(F)c2F)oc2ccc(Br)cc2c1=O [Example 57, 2-(2,3-difluorophenyl)-3-carboxy-6-bromo-(4H)-4-benzopyranone]	10.3

Test system: not given
Test: not given
Details: not given

melting point [°C]	Structure (SMILES)
211 to 213	O=C(O)c1c(-c2ccc(Cl)cc2)oc2ccc(Br)cc2c1=O [Example 72, 2-(4-chlorophenyl)-3-carboxy-6-bromo-(4H)-4-benzopyranone]
227 to 228	O=C(O)c1c(-c2ccc(Cl)cc2)oc2ccc(Cl)cc2c1=O [Example 71, 2-(4-chlorophenyl)-3-carboxy-6-chloro-(4H)-4-benzopyranone]
≥ 120	O=C(O)c1c(-c2cccc(F)c2F)oc2ccc(Br)cc2c1=O [Example 57, 2-(2,3-difluorophenyl)-3-carboxy-6-bromo-(4H)-4-benzopyranone]

Further lines, the compound ahead of its results:

Structure (SMILES)	melting point [°C]
COc1ccc(-c2oc3ccc(Br)cc3c(=O)c2C(=O)O)cc1OC [Example 40, 2-(3,4-dimethoxyphenyl)-3-carboxy-6-bromo-(4H)-4-benzopyranone]	242 to 243
O=C(O)c1c(-c2cccc(F)c2)oc2ccc(Cl)cc2c1=O [Example 45, 2-(3-fluorophenyl)-3-carboxy-6-chloro-(4H)-4-benzopyranone]	216 to 217
O=C(O)c1c(-c2cc(F)cc(F)c2)oc2ccccc2c1=O [Example 17, 2-(3,5-difluorophenyl)-3-carboxy-(4H)-4-benzopyranone]	208 to 209
O=C(O)c1c(-c2cc(F)cc(F)c2)oc2ccc(Cl)cc2c1=O [Example 50, 2-(3,5-difluorophenyl)-3-carboxy-6-chloro-(4H)-4-benzopyranone]	207 to 209
O=C(O)c1c(-c2cccc(F)c2)oc2ccccc2c1=O [Example 16, 2-(3-fluorophenyl)-3-carboxy-(4H)-4-benzopyranone]	193 to 196
Cc1cccc(-c2oc3ccc(Br)cc3c(=O)c2C(=O)O)c1 [Example 30, 2-(3-methylphenyl)-3-carboxy-6-bromo-(4H)-4-benzopyranone]	208 to 210

Test system: DBA/1 mice
Test: CIA mouse model, alone and in combination with methotrexate
Type: in vivo
Details: Example 61 10 mpk PO once a day, MTX 5 mpk three times a week, to Day 73
Description: A 1:1 mixture of collagen type 2 and CFA was intradermally (ID) injected into the base of the tail of DBA/1 mice. Two weeks after the primary immunization, a 1:1 mixture of bovine collagen type 2 and IFA (incomplete Freund's adjuvant) was intradermally (ID) injected into the base of the tail to prepare the rheumatoid arthritis animal model. The thus prepared mice were divided into […], i.e., a positive control group (MTX 5 mpk treated group: 10 mice), a group treated with the compound of Example 61 alone (10 mpk treated group: 9 mice), a group treated with MTX and the compound of Example 61 (each 5 mpk and 10 mpk; 9 mice), and a group treated with vehicle (a group treated with 0.05% CMC diluted in distilled water; 15 mice). […]
The severity of arthritis was determined by ascertaining the mean score of arthritis according to the following standard score in the forefoot and hindfoot twice a week from Day 0 to Day 73 after the primary immunization: 0=normal foot, 1=inflammation and swelling of one toe, 2=inflammation and swelling of more than one toe, but not all of the toes have inflammation and swelling, or weak swelling of all toes, 3=inflammation and swelling of all toes, and 4=severe inflammation and swelling or occlusion of foot.

Structure (SMILES)	therapeutic effect on arthritis (mean arthritis score)
CN(Cc1cnc2nc(N)nc(N)c2n1)c1ccc(C(=O)N[C@@H](CCC(=O)O)C(=O)O)cc1 [MTX, methotrexate, reference compound]	therapeutic effect on arthritis was shown

Target: T2, biotinylated TNF (Homo sapiens, UniProt P01375)
T2 construct: purchased R&D Systems NFTAO
T2 sequence (P01375 77-233 limits assumed): as above
Test: Flow cytometry: binding of biotinylated TNF to Raw 264.7 cells
Type: cell-based, mouse
Details: compound 800, 200, 5 μM, FACS, FIG. 3a
Method: First, macrophage Raw 264.7 cells were prepared (4×10^6 cells/ml), and the biotinylated TNF alone or in combination with the 4-benzopyranone derivative compound (800, 200, 5 μM) was added to the cells and reacted (30 min, 4° C.). 10 μl of avidin-FITC reagent was then added and reacted in the dark (30 min, 4° C.). After washing with RDF1 buffer, FACS analysis was carried out (BD Canto). Human TNF-alpha Biotinylated Fluorokine Flow Cytometry Kit (Cat #: NFTAO) of R&D Systems was used in the experiment.

Structure (SMILES)	inhibitory activity against TNF-cell binding
Cc1cccc(-c2oc3ccc(Br)cc3c(=O)c2C(=O)O)c1 [Example 30, 2-(3-methylphenyl)-3-carboxy-6-bromo-(4H)-4-benzopyranone]	did not inhibit the cell binding of TNF at all

Target: T1, TNF
Test: SPR (Biacore T200) direct binding to immobilized TNF
Details: FIG. 2d
Method: The binding kinetics of TNF and 4-benzopyranone derivative compounds was measured by Surface Plasmon Resonance (SPR) method. First, based on the results of pH scouting (10 mM acetate buffer, pH 4.0, 4.5, 5.0, and 5.5), the appropriate buffer pH was determined, and then the recombinant TNF was immobilized on the CM5 chip (4000-5000 RU). In order to correct an effect of DMSO, a solvent correction standard was then prepared, and DMSO was added to the HBS-EP+ buffer (GE) in an amount of 5%. Then, the 4-benzopyranone derivative compounds were prepared depending on concentration, flowed into the chip (20 μl/min, 500 s), and dissolved (500 s), and the results of sensorgram were analyzed by a dedicated program to determine the affinity value (KD). At this time, the running buffer was HBS-EP+ buffer (GE), the regeneration buffer was 10 mM glycine (pH 2.5), and Biacore T200 (GE) was used as an analyzer.

Structure (SMILES)	binding to TNF
Cc1cccc(-c2oc3ccc(Br)cc3c(=O)c2C(=O)O)c1 [Example 30, 2-(3-methylphenyl)-3-carboxy-6-bromo-(4H)-4-benzopyranone]	did not bind to TNF

Test system: not listed separately
Test: Cytotoxicity (CC50) in LM cells, MTT assay
Type: cell-based
Details: mouse, LM cells (mouse fibroblasts); 50% cytotoxic concentration
Method: as §1, §2

Structure (SMILES)	CC50 at 24 h [µM]
COc1ccc(-c2oc3ccc(Br)cc3c(=O)c2C(=O)O)cc1OC [Example 40, 2-(3,4-dimethoxyphenyl)-3-carboxy-6-bromo-(4H)-4-benzopyranone]	> 50
O=C(O)c1c(-c2cccc(F)c2)oc2ccc(Cl)cc2c1=O [Example 45, 2-(3-fluorophenyl)-3-carboxy-6-chloro-(4H)-4-benzopyranone]	42
O=C(O)c1c(-c2cc(F)cc(F)c2)oc2ccccc2c1=O [Example 17, 2-(3,5-difluorophenyl)-3-carboxy-(4H)-4-benzopyranone]	> 50
O=C(O)c1c(-c2ccc(Cl)cc2)oc2ccc(Br)cc2c1=O [Example 72, 2-(4-chlorophenyl)-3-carboxy-6-bromo-(4H)-4-benzopyranone]	> 50
O=C(O)c1c(-c2cc(F)cc(F)c2)oc2ccc(Cl)cc2c1=O [Example 50, 2-(3,5-difluorophenyl)-3-carboxy-6-chloro-(4H)-4-benzopyranone]	36
O=C(O)c1c(-c2cccc(F)c2)oc2ccccc2c1=O [Example 16, 2-(3-fluorophenyl)-3-carboxy-(4H)-4-benzopyranone]	> 50
O=C(O)c1c(-c2ccc(Cl)cc2)oc2ccc(Cl)cc2c1=O [Example 71, 2-(4-chlorophenyl)-3-carboxy-6-chloro-(4H)-4-benzopyranone]	36
O=C(O)c1c(-c2cccc(F)c2F)oc2ccc(Br)cc2c1=O [Example 57, 2-(2,3-difluorophenyl)-3-carboxy-6-bromo-(4H)-4-benzopyranone]	47
